Laboratory results from patent US20140308294A1, “Anti-IL-1R1 Inhibitors For Use in Cancer” (MERCK PATENT GMBH, priority 2011, published 2014).

Columns and labels:
hIL8 = test: Serum hIL8 ELISA in NOD/SCID mice with CSC-xenograft tumors; format: in vivo, mouse; conditions: CRC day 76 and NSCLC day 91, vs vehicle
Method: (§1) This analysis was performed on serum collected from the tumor model studies described in FIG. 18. Serum analysis was performed using high-sensitivity ELISA assay kits obtained from R&D systems. A.C. Serum from 3 mice at day 76 (CRC) (blue) and at day 91 (NSCLC) (red) was analyzed for hIL8 and hVEGF serum levels. Results are shown as bar graphs representing the mean cytokine concentration in pg/mL+/−SD from n=3 mice/group.
(§2) Three mice from each study group were sacrificed at day 76 (CRC) or day 91 (NSCLC). The tumors were excised, dissociated into single cells, and viably cryopreserved. Serum was also collected for cytokine detection. For the remaining mice Kineret treatment was stopped and the mice were further monitored for tumor growth. When tumors reached ethical tumor-burden limits the mice were sacrificed and tumor cells and serum were collected. […] From all sacrificed mice we also collected and cryopreserved bone marrow cells from the femur and tibial bones for possible analyses.

[1] = tested on: primary NSCLC CSC-derived xenograft tumors; test: CSC-xenograft tumor growth, NSCLC model in NOD/SCID mice; format: in vivo, mouse; conditions: 5 or 10 mg daily s.c., 91 days
Method: (§3) CSC were FACS-enriched from primary tumor-derived NSCLC and CRC cell line cultures on the basis ALDH activity as determined by the Aldefluor assay. 10^4 cells/mouse were transplanted s.c. in NOD/SCID mice together with Matrigel. A Loading dose of 5 μg/mL Kineret (recombinant […], Amgen) was applied to the Matrigel and subsequent daily treatment s.c. with either 5 or 10 mg Kineret was performed beginning on day 1 post transplantation. Tumor volumes were monitored weekly and three mice from each group were sacrificed at day 76 for the CRC model (A.) and at day 91 for the NSCLC model (B.) for further analysis. For the remaining animals Kineret treatment was stopped and tumor progression was continually monitored. When tumors reached >2000 mm^3 mice were sacrificed. At time of sacrifice serum was collected along for cytokine analysis. A. Tumor growth curves in the CRC tumor model study and B. growth curves in the NSLCL model study. Curves represent mean tumor volume in mm3 from 10 mice/group; error bars are SEM The data shown for each model is representative of n=2 similar experiments.
(§4) Human cell cultures derived from primary tumors obtained from a CRC (FIG. 12A) and a NSCLC (FIG. 12B) patient were sorted for the Aldeflour-positive population using fluorescence activated cell sorting (FACS). […]
(§5) Tumor volume was monitored weekly for 76 days in the CRC model and for 91 days in the NSCLC model.

[2] = Tolerability in NOD/SCID mice of the xenograft studies; format: in vivo; conditions: 5 and 10 mg daily s.c.
From the text: Human cell cultures derived from primary tumors obtained from a CRC (FIG. 12A) and a NSCLC (FIG. 12B) patient were sorted for the Aldeflour-positive population using fluorescence activated cell sorting (FACS). Aldefluor is a marker of high aldehyde-dehydrogenase activity, which is associated with both normal stem cell and CSC phenotypes. The sorted aldefluor-positive (AF+) cells were suspended in Matrigel and injected subcutaneously at a very low cell number (2×10^4 cells/mouse) into NOD/SCID immune-deficient mice. The matrigel suspensions contained a Kineret loading dose of 5 μg/mL which corresponds to reported serum levels of Kineret after daily s.c. dosing. Starting 1 day after inoculation of the AF+ cells, mice were treated daily with 5 mg or 10 mg of Kineret (purchased from Biovitrum) or the drug vehicle. The administration route was s.c. as is standard for Kineret in the clinic.
as §5

hVEGF = test: Serum hVEGF ELISA in NOD/SCID mice with CSC-xenograft tumors; format: in vivo, mouse; conditions: CRC day 76 and NSCLC day 91, vs vehicle
Method: as §1, §2

[3] = tested on: primary CRC CSC-derived xenograft tumors; test: CSC-xenograft tumor growth, CRC model in NOD/SCID mice; format: in vivo, mouse; conditions: 5 or 10 mg daily s.c., 76 days
Method: as §3, §4, §5

[4] = in vivo, sc; cited from earlier work

In the case of “Kineret: human IL1R-antagonist (IL1RA) marketed under the trade name Kineret, Amgen; approved for rheumatoid arthritis”, the “hIL-8 levels in mouse serum” value (hIL8) is reported as “reduced to undetectable levels”, the “inhibition of tumor growth” value [1] is reported as “response was only achieved with the higher dose of 10 mg/kg” and the tolerability [2] is reported as “well tolerated”. For the same substance, the “hVEGF levels in mouse serum” value (hVEGF) was “did not alter”, the “inhibition of tumor growth” value [3] was “strong inhibition at both the 5 and 10 mg doses” and the “reported serum levels after daily s.c. dosing” value [4] was 5 µg/mL.
